This assay deals with C-C chemokine receptor type 5 (Homo sapiens, UniProt P51681).
C-C chemokine receptor type 5, sequence (P51681 whole entry): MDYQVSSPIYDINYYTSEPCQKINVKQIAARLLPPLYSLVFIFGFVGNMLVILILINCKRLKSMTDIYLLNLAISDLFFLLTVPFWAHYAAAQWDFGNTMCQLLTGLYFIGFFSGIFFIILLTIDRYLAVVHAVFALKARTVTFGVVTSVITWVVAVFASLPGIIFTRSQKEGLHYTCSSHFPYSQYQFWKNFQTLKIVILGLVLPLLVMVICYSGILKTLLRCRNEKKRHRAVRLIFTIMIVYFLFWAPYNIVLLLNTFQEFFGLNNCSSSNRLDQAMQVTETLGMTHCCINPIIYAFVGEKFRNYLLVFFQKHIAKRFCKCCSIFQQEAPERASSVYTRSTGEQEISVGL
In turn, `CC(=O)Nc1ccc(S(=O)(=O)NCCc2csc(-c3cccnc3)n2)cc1` showed a 50% effective concentration (EC50) of 0.0196 µM. The value for `CCOC(=O)c1ccc(NC(=O)Cn2nnc(-c3ccccc3)n2)cc1` [SMR000021419] was 0.123 µM. `CN(CC(=O)N1CCN(c2ccccn2)CC1)S(=O)(=O)c1ccc(Cl)cc1`: a half-maximal effect (EC50) was put at 0.00746 µM. Molecule `CCOC(=O)c1ccc(NC(=O)COc2ccc(S(=O)(=O)N3CCCC3)cc2)cc1` [SMR000124597] gave an EC50 of 0.188 µM.

Source of the values: BindingDB's records for doi:10.7270/Q23B5XSC (Nmmlsc, 2012).
